From article PMC9177597, “Structural basis of substrate recognition and translocation by human very long-chain fatty acid transporter ABCD1” (Nature Communications, 2022)
Where a chain is given by its changes, count along the chain named.

Assays:
Assay in all cases: substrate-stimulated ATPase assay (colorimetric Pi release)
Format in all cases: biochemical
Conditions in all cases: 5 μM C22:0-CoA, 2 mM ATP, 2 mM MgCl2, LMNG + CHS, pH 7.5, 37 °C
chABCD1 (chimeric ABCD1) [1] = biological target: T1, chABCD1 (chimeric ABCD1) (Homo sapiens, UniProt P33897, R401Q)
T1 construct: single polypeptide: N-terminal FLAG tag, PMP-4 residues 1-65 replacing human ABCD1 residues 1-63, then human ABCD1 64-745; HEK293F; homodimer; LMNG/CHS for assays, digitonin for cryo-EM; with PMP-4 (peroxisomal membrane protein related, ABCD1 homolog, Caenorhabditis elegans; N-terminal segment fused to the target chain)
T1 sequence (P33897 64-745 R401Q): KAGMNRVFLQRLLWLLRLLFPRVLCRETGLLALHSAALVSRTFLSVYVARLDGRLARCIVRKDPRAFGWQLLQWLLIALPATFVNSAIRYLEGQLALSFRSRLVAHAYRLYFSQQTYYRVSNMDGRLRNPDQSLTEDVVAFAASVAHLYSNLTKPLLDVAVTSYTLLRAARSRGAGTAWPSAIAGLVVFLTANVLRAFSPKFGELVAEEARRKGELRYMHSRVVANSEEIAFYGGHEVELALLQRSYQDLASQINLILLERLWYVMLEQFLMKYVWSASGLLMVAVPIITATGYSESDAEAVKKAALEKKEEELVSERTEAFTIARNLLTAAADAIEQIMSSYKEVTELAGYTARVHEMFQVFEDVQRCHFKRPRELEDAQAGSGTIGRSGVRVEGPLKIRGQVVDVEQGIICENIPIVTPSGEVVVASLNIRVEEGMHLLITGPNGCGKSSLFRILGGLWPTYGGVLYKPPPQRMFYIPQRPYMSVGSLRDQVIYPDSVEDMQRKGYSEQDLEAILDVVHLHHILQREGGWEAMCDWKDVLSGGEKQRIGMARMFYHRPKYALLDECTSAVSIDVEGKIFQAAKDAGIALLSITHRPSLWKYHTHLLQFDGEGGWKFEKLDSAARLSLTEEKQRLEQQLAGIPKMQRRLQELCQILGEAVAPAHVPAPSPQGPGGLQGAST

chABCD1 (chimeric ABCD1) [2] = biological target: T2, chABCD1 (chimeric ABCD1) (Homo sapiens, UniProt P33897, K217A)
T2 construct: single polypeptide: N-terminal FLAG tag, PMP-4 residues 1-65 replacing human ABCD1 residues 1-63, then human ABCD1 64-745; HEK293F; homodimer; LMNG/CHS for assays, digitonin for cryo-EM; with PMP-4 (peroxisomal membrane protein related, ABCD1 homolog, Caenorhabditis elegans; N-terminal segment fused to the target chain)
T2 sequence (P33897 64-745 K217A): T1 sequence (P33897 64-745 R401Q) with K154A, Q338R

chABCD1 (chimeric ABCD1) [3] = biological target: T3, chABCD1 (chimeric ABCD1) (Homo sapiens, UniProt P33897, R152A)
T3 construct: single polypeptide: N-terminal FLAG tag, PMP-4 residues 1-65 replacing human ABCD1 residues 1-63, then human ABCD1 64-745; HEK293F; homodimer; LMNG/CHS for assays, digitonin for cryo-EM; with PMP-4 (peroxisomal membrane protein related, ABCD1 homolog, Caenorhabditis elegans; N-terminal segment fused to the target chain)
T3 sequence (P33897 64-745 R152A): T1 sequence (P33897 64-745 R401Q) with R89A, Q338R

CCCCCCCCCCCCCCCCCCCCCC(=O)SCCNC(=O)CCNC(=O)[C@H](O)C(C)(C)COP(=O)(O)OP(=O)(O)OC[C@H]1O[C@@H](n2cnc3c(N)ncnc32)[C@H](O)[C@@H]1OP(=O)(O)O [C22:0-CoA]
relative ATPase activity (chABCD1 (chimeric ABCD1) [1]): displayed significantly decreased substrate-simulated ATPase activity, compared to the wild-type | relative ATPase activity (chABCD1 (chimeric ABCD1) [2]): displayed significantly decreased substrate-simulated ATPase activity, compared to the wild-type | relative ATPase activity (chABCD1 (chimeric ABCD1) [3]): displayed significantly decreased substrate-simulated ATPase activity, compared to the wild-type
